The results in this text go back to article PMC6722389, “Cryo-EM structure of the Ustilago maydis kinesin-5 motor domain bound to microtubules” (Journal of Structural Biology, 2019).

The target in one assay is T1, UmKin5 (Mycosarcoma maydis, UniProt A0A0D1DQH0).
T1 construct: gene UMAG_10678; motor domain residues 73-456 without N-terminal extension; N-terminal His6 tag removed by TEV protease; E. coli BL21*(DE3); monomeric
The assay is described as follows: cryo-EM structure. As to conditions: microtubule-bound (bovine brain tubulin, paclitaxel); 5 mM AMPPNP, 1 mM MgCl2, pH 6.8; nucleotide binding site; overall resolution 4.3 Å, motor ~5-7 Å.

The target in a further assay is T2, N+UmKin5 (Mycosarcoma maydis, UniProt A0A0D1DQH0).
T2 construct: gene UMAG_10678; motor domain with 72-residue N-terminal extension, residues 1-456; N-terminal His6 tag removed by TEV protease; E. coli BL21*(DE3); monomeric
Description: cryo-EM structure. Conditions: microtubule-bound (bovine brain tubulin, paclitaxel); 5 mM AMPPNP, 1 mM MgCl2, pH 6.8; nucleotide binding site; overall resolution 4.5 Å, motor ~5-7 Å.

On to `Nc1ncnc2c1ncn2[C@@H]1O[C@H](COP(=O)(O)OP(=O)(O)NP(=O)(O)O)[C@@H](O)[C@H]1O` [AMPPNP], for which the cryo-EM structure result is recorded as “Strong density is visible at the nucleotide binding site consistent with the presence of AMPPNP” on UmKin5 and “Both constructs bound the MT lattice in the presence of the non-hydrolysable ATP analogue AMPPNP” at N+UmKin5.
